Each structure is given as a SMILES string.

Three molecules from patent publication US20110190253A1, “METHOD FOR TREATING TUBERCULOSIS” (priority 2008, published 2011) can be followed below.

For the experiment, the system named is extensively drug-resistant (XDR) clinical strains of M. tuberculosis. Briefly: microbe, parasite or virus in culture. Format: cell-based. As to conditions: for variability of MIC values among strains: thirteen XDR clinical isolates, clavulanate 2.5 μg ml^−1, data not shown.

`CC1(C)S[C@@H]2[C@H](NC(=O)[C@H](N)c3ccccc3)C(=O)N2[C@H]1C(=O)O` [ampicillin]: the “variability of MIC values among strains” value is “substantial variability”.
Regarding `CC(=O)OCC1=C(C(=O)O)N2C(=O)[C@@H](NC(=O)Cc3cccs3)[C@H]2SC1` [cephalothin], the “variability of MIC values among strains” value is reported as “substantial variability”.
With `C[C@@H](O)[C@H]1C(=O)N2C(C(=O)O)=C(S[C@@H]3CN[C@H](C(=O)N(C)C)C3)[C@H](C)[C@H]12` [meropenem], the MIC (Mycobacterium tuberculosis, read-out: MIC value) is ≤ 1 µg/mL.
